The target of experiment [1] is His-tagged KRAS G12D protein (Homo sapiens, UniProt P01116, G12D). The experiment can be described thus: KRAS G12D TR-FRET Assay.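 Note: europium anti-His antibody paired with streptavidin-d2 as FRET partners, initial 30 min incubation, then peptide 1 h and detection reagents 1 h, all at room temperature.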 The settings on record: biotinylated KRPep-2d substrate, 10 μM GDP. The class given is binding. (In general: In TR-FRET formats the signal depends on donor and acceptor labels being close together.)
Experiment [2] concerns the target GDP-bound KRAS protein (aa 1-169), containing both G12D and C118A amino acid substitutions (Homo sapiens, UniProt P01116, C118A/G12D). The experiment can be described thus: KRAS G12D Coupled Nucleotide Exchange Assay.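 Note: IC50 obtained by fitting the AlphaScreen signal with a four-parameter logistic curve.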 The format is biochemical. The settings on record: 2 h compound pre-incubation; SOS-mediated nucleotide exchange, cRAF AlphaScreen readout.

Chain of GDP-bound KRAS protein (aa 1-169), containing both G12D and C118A amino acid substitutions (P01116 1-169 isoform P01116-2 G12D/C118A): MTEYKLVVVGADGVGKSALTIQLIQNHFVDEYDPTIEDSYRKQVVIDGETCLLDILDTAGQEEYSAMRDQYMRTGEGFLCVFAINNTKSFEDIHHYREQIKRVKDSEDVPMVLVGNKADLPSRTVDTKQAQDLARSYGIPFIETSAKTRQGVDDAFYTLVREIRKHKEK
Chain of His-tagged KRAS G12D protein (P01116 1-188 isoform P01116-2 G12D): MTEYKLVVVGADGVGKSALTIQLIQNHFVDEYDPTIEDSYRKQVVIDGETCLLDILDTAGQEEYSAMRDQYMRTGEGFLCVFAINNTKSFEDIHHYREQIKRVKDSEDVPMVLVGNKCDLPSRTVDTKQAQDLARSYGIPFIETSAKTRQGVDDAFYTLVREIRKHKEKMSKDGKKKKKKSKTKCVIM

`CN1CCC[C@H]1COc1nc(N2C3CNCC2COC3)c2cc(Cl)c(-c3cccc4sc(N)nc34)c(F)c2n1` [Example 10, 4-(4-(3-oxa-7,9-diazabicyclo[3.3.1]nonan-9-yl)-6-chloro-8-fluoro-2-(((S)-1-methylpyrrolidin-2-yl)methoxy)quinazolin-7-yl)benzo[d] thiazol-2-amine] gave an IC50 in experiment [1] of 14 nM. In addition, the “Avg 2 h Coupled Exchange IC50” value in experiment [2] turned out to be 0.01 µM.

For `CN1C[C@H](F)C[C@H]1COc1nc(N2CCNC(=O)CC2)c2cc(Cl)c(-c3ccc(F)c4sc(N)nc34)c(F)c2n1` [Example 21, 1-(7-(2-amino-7-fluorobenzo[d]thiazol-4-yl)-6-chloro-8-fluoro-2-(((2S,4R)-4-fluoro-1-methylpyrrolidin-2-yl)methoxy)quinazolin-4-yl)-1,4-diazepan-5-one], the midpoint of inhibition in experiment [1], the IC50, lay at 97 nM. Also, the “Avg 2 h Coupled Exchange IC50” value in experiment [2] turned out to be 0.067 µM.

Turning to `CC1CNCC=C1c1nc(OC[C@@H]2CCCN2C)nc2c(F)c(-c3cccc4sc(N)nc34)c(Cl)cc12` (single isomer, unassigned) [Example 146], the IC50 in experiment [1] worked out at 4090 nM. Moreover, the “Avg 2 h Coupled Exchange IC50” value in experiment [2] came out at 1.56 µM.

Take `Nc1nc2c(-c3c(F)cc4c(N5[C@@H]6CC[C@H]5CNC6)nc(OC[C@@]56CCCN5C[C@H](F)C6)nc4c3F)ccc(F)c2s1` [Example 142, 4-(4-((1R,5S)-3,8-diazabicyclo[3.2.1]octan-8-yl)-6,8-difluoro-2-(((2R,7aS)-2-fluorotetrahydro-1H-pyrrolizin-7a(5H)-yl)methoxy)quinazolin-7-yl)-7-fluorobenzo[d]thiazol-2-amine]: half-maximal inhibition in experiment [1] (IC50) was put at 4 nM. Besides, the “Avg 2 h Coupled Exchange IC50” value in experiment [2] came out at 0.007 µM.

Molecule `CN1CCC[C@H]1COc1nc(N2CCN[C@@H](CO)C2)c2cc(Cl)c(-c3cccc4sc(N)nc34)c(F)c2n1` [Example 25, ((2R)-4-(7-(2-aminobenzo[d]thiazol-4-yl)-6-chloro-8-fluoro-2-(((S)-1-methylpyrrolidin-2-yl)methoxy)quinazolin-4-yl)piperazin-2-yl)methanol] yielded an IC50 in experiment [1] of 239 nM. Further, the “Avg 2 h Coupled Exchange IC50” value in experiment [2] worked out at 0.181 µM.

`CN1CCC[C@H]1COc1nc(N2CCNC(C(F)(F)F)C2)c2cc(Cl)c(-c3cccc4sc(N)nc34)c(F)c2n1` (stereo partly drawn) [Example 1, 4-(6-Chloro-8-fluoro-2-(((S)-1-methylpyrrolidin-2-yl)methoxy)-4-(3-(trifluoromethyl)piperazin-1-yl)quinazolin-7-yl)benzo[d]thiazol-2-amine] gave an IC50 in experiment [1] of 11300 nM. For the same molecule, in experiment [2], the “Avg 2 h Coupled Exchange IC50” value was 3.655 µM.

The molecule `Nc1nc2c(-c3c(Cl)cc4c(N5CCNCC5)nc(OC[C@@H]5CCC(=O)N5)nc4c3F)cccc2s1` [Example 68, (5S)-5-(((7-(2-aminobenzo[d]thiazol-4-yl)-6-chloro-8-fluoro-4-(piperazin-1-yl)quinazolin-2-yl)oxy)methyl) pyrrolidin-2-one] displayed an IC50 in experiment [1] of 829 nM. Further, the “Avg 2 h Coupled Exchange IC50” value in experiment [2] was 0.718 µM.

`CC1=C(c2nc(OC[C@@H]3CCCN3C)nc3c(F)c(-c4cccc5sc(N)nc45)c(Cl)cc23)CCNC1` [Example 147, 4-(6-chloro-8-fluoro-4-(5-methyl-1,2,3,6-tetrahydropyridin-4-yl)-2-(((S)-1-methylpyrrolidin-2-yl)methoxy)quinazolin-7-yl)benzo[d]thiazol-2-amine] showed an IC50 in experiment [1] of 11200 nM. The “Avg 2 h Coupled Exchange IC50” value in experiment [2] turned out to be 3.55 µM.

`Nc1nc2c(-c3c(Cl)cc4c(N5CCNCC5)nc(OC[C@@H]5CCCN5CC(F)F)nc4c3F)cccc2s1` [Example 66, 4-(6-chloro-2-(((S)-1-(2,2-difluoroethyl)pyrrolidin-2-yl)methoxy)-8-fluoro-4-(piperazin-1-yl)quinazolin-7-yl)benzo[d] thiazol-2-amine]: in experiment [1], 1620 nM corresponded to half-maximal inhibition (IC50). Further, in experiment [2], the “Avg 2 h Coupled Exchange IC50” value is 0.549 µM.

In turn, `CN1C[C@H](F)C[C@H]1COc1nc(N2CCCNC(=O)C2)c2cc(Cl)c(-c3ccc(F)c4sc(N)nc34)c(F)c2n1` [Example 19, 4-(7-(2-amino-7-fluorobenzo[d]thiazol-4-yl)-6-chloro-8-fluoro-2-(((2S,4R)-4-fluoro-1-methylpyrrolidin-2-yl)methoxy)quinazolin-4-yl)-1,4-diazepan-2-one] came in with an IC50 in experiment [1] of 85 nM. Besides, the “Avg 2 h Coupled Exchange IC50” value in experiment [2] was 0.062 µM.

The molecule `CN1CCC[C@H]1COc1nc(N2CCNC[C@@H]2CCO)c2cc(Cl)c(-c3cccc4sc(N)nc34)c(F)c2n1` [Example 36, 2-((2S)-1-(7-(2-aminobenzo[d]thiazol-4-yl)-6-chloro-8-fluoro-2-(((S)-1-methylpyrrolidin-2-yl)methoxy)quinazolin-4-yl)piperazin-2-yl)ethan-1-ol] gave an IC50 in experiment [1] of 5850 nM. Moreover, the “Avg 2 h Coupled Exchange IC50” value in experiment [2] was 2.25 µM.

Turning to `CN1CC(F)(F)C[C@H]1COc1nc(N2CCNCC2)c2cc(Cl)c(-c3cccc4sc(N)nc34)c(F)c2n1` [Example 65, 4-(6-chloro-2-(((S)-4,4-difluoro-1-methyl-pyrrolidin-2-yl)methoxy)-8-fluoro-4-(piperazin-1-yl)quinazolin-7-yl)benzo[d] thiazol-2-amine], in experiment [1], it took 1840 nM to reach half-maximal inhibition (IC50). In experiment [2], the “Avg 2 h Coupled Exchange IC50” value was found to be 0.504 µM.

As for `Nc1nc2c(-c3c(Cl)cc4c(N5CCNCC5)nc(OCC56CCCN5CCC6)nc4c3F)ccc(F)c2s1` [Example 8, 4-(6-chloro-8-fluoro-4-(piperazin-1-yl)-2-((tetrahydro-1H-pyrrolizin-7a(5H)-yl)methoxy)quinazolin-7-yl)-7-fluorobenzo[d] thiazol-2-amine], the IC50 in experiment [1] stood at 9 nM. Also, in experiment [2], the “Avg 2 h Coupled Exchange IC50” value is 0.007 µM.

In experiment [1], `CN1CCCC[C@H]1COc1nc(N2CCNCC2)c2cc(Cl)c(-c3cccc4sc(N)nc34)c(F)c2n1` [Example 64, 4-(6-chloro-8-fluoro-2-(((S)-1-methyl-piperidin-2-yl)methoxy)-4-(piperazin-1-yl)quinazolin-7-yl)benzo[d] thiazol-2-amine] came in with an IC50 of 1190 nM. Further, the “Avg 2 h Coupled Exchange IC50” value in experiment [2] came out at 0.446 µM.

In the case of `CN1C[C@H](F)C[C@H]1COc1nc(N2CCNCC2)c2cc(Cl)c(-c3cccc4sc(N)nc34)c(F)c2n1` [Example 49, 4-(6-chloro-8-fluoro-2-(((2S,4R)-4-fluoro-1-methyl-pyrrolidin-2-yl)methoxy)-4-(piperazin-1-yl)quinazolin-7-yl)benzo[d] thiazol-2-amine], inhibition in experiment [1] was half-maximal at 141 nM (IC50). Also, the “Avg 2 h Coupled Exchange IC50” value in experiment [2] worked out at 0.038 µM.

In experiment [1], `CN1CCC[C@H]1COc1nc(N2CCNC[C@@H]2CO)c2cc(Cl)c(-c3cccc4sc(N)nc34)c(F)c2n1` [Example 37, ((2R)-1-(7-(2-aminobenzo[d]thiazol-4-yl)-6-chloro-8-fluoro-2-(((S)-1-methylpyrrolidin-2-yl)methoxy)quinazolin-4-yl)piperazin-2-yl)methanol] registered an IC50 of 1970 nM. Besides, the “Avg 2 h Coupled Exchange IC50” value in experiment [2] amounted to 0.388 µM.

Take `CN1CCC[C@H]1COc1nc(N2CCN[C@@H](CC#N)C2)c2cc(Cl)c(-c3cccc4sc(N)nc34)c(F)c2n1` [Example 26, 2-((2S)-4-(7-(2-aminobenzo[d]thiazol-4-yl)-6-chloro-8-fluoro-2-(((S)-1-methylpyrrolidin-2-yl)methoxy)quinazolin-4-yl)piperazin-2-yl)acetonitrile]: in experiment [1], the IC50 amounted to 1210 nM. The “Avg 2 h Coupled Exchange IC50” value in experiment [2] stood at 0.409 µM.

`Nc1nc2c(-c3c(F)cc4c(N5C[C@@H]6CC[C@H]5CN6)nc(OC[C@@]56CCCN5C[C@H](F)C6)nc4c3F)ccc(F)c2s1` [Example 143, 4-(4-((1S,4S)-2,5-diazabicyclo[2.2.2]octan-2-yl)-6,8-difluoro-2-(((2R,7aS)-2-fluorotetrahydro-1H-pyrrolizin-7a(5H)-yl)methoxy)quinazolin-7-yl)-7-fluorobenzo[d]thiazol-2-amine] yielded an IC50 in experiment [1] of 10 nM. In addition, in experiment [2], the “Avg 2 h Coupled Exchange IC50” value stood at 0.008 µM.

For the molecule `CCN1CCC(Oc2nc(N3CCNCC3)c3cc(Cl)c(-c4cccc5sc(N)nc45)c(F)c3n2)CC1` [Example 128, 4-(6-chloro-2-((1-ethylpiperidin-4-yl)oxy)-8-fluoro-4-(piperazin-1-yl)quinazolin-7-yl)benzo[d]thiazol-2-amine], in experiment [1], the IC50 turned out to be 1480 nM. For the same molecule, the “Avg 2 h Coupled Exchange IC50” value in experiment [2] stood at 0.411 µM.

In experiment [1], `C[C@H](CN(C)C)Oc1nc(N2CCNCC2)c2cc(Cl)c(-c3cccc4sc(N)nc34)c(F)c2n1` [Example 69, 4-(6-chloro-2-(((R)-1-(dimethylamino)propan-2-yl)oxy)-8-fluoro-4-(piperazin-1-yl)quinazolin-7-yl)benzo[d] thiazol-2-amine] showed an IC50 of 7720 nM. In experiment [2], the “Avg 2 h Coupled Exchange IC50” value was determined as 1.89 µM.

Take `CN1C[C@@H](F)C[C@H]1COc1nc(N2CCNCC2)c2cc(Cl)c(-c3cccc4sc(N)nc34)c(F)c2n1` [Example 62, 4-(6-chloro-8-fluoro-2-(((2S,4S)-4-fluoro-1-methyl-pyrrolidin-2-yl)methoxy)-4-(piperazin-1-yl)quinazolin-7-yl)benzo[d] thiazol-2-amine]: it took 673 nM to reach half-maximal inhibition in experiment [1] (IC50). Moreover, the “Avg 2 h Coupled Exchange IC50” value in experiment [2] amounted to 0.394 µM.

On to `Cc1cc(-c2c(Cl)cc3c(N4CCNCC4)nc(OC[C@@H]4CCCN4C)nc3c2F)c2nc(N)sc2c1` [Example 129, 4-(6-chloro-8-fluoro-2-(((S)-1-methylpyrrolidin-2-yl)methoxy)-4-(piperazin-1-yl)quinazolin-7-yl)-6-methylbenzo[d]thiazol-2-amine], for which the half-maximal inhibitory concentration (IC50) in experiment [1] was 5300 nM. Also, the “Avg 2 h Coupled Exchange IC50” value in experiment [2] turned out to be 1.09 µM.

In experiment [1], `CN1CCC[C@H]1COc1nc(N2CCNC(=O)C2)c2cc(Cl)c(-c3cccc4sc(N)nc34)c(F)c2n1` [Example 23, 4-(7-(2-aminobenzo[d]thiazol-4-yl)-6-chloro-8-fluoro-2-(((S)-1-methylpyrrolidin-2-yl)methoxy)quinazolin-4-yl)piperazin-2-one] showed an IC50 of 678 nM. Moreover, in experiment [2], the “Avg 2 h Coupled Exchange IC50” value was found to be 0.166 µM.

As a reminder, the IC50 is the concentration at which inhibition is half-maximal. Higher therefore signals lower potency.
